Experimental data reported in the OPERA property sets (Mansouri et al. 2018).
Converted amounts (≈) assume the structure as drawn.

solubility (22 °C) [µM] | Structure (SMILES) | solubility (25 °C) [µM]
– | O=P(Oc1ccccc1)(Oc1ccccc1)Oc1ccccc1 | 5.82 (≈ 1.9 µg/mL)
– | c1ccc2nc3ccccc3cc2c1 | 214 (≈ 38.4 µg/mL)
303 (≈ 69 µg/mL) | CC(C)Nc1nc(Cl)nc(NC2CC2)n1 | –
